The test system of data set [1] is malignant cells of adenomatous carcinoma, squamous cell carninoma, sarcoma and the like, especially undifferentiated tumors. Put plainly: clinical experiments, sensitivity of malignant cells. Format: in vivo, human. The note with it: in words. The source says: (§1) In general, Ehrlich ascites tumor is highly sensitive to conventional carcinostatic agents of cytotoxic type, and Ehrlich solid tumor is relatively lowly sensitive to most of these known carcinostatic agents. […] Thus, the composition of the present invention is very unique in the point that it is efficacious against a broadrange of carcinomatous diseases.

Data set [2] concerns Adeno-carcinoma 755. The data set can be described thus: Test 1: tumor weight, subcutaneously implanted Adeno-carcinoma 755. Format: in vivo, mice (first filial generation of C57BL/6 and DBA/2). The note with it: 11th day. The protocol: (§2) As the experimental animal, there were used four mice of the first filial generation of C57BL/6 and DBA/2, which were 6 to 7 weeks old. A carcinoma (Adeno-carcinoma 755) was implanted on the hypoderm in the back by using an implanting needle. […] This treatment was conduced once a day for 9 days. On the 11th day from the implantation, the weight of the tumor was measured with respect to each group to obtain the results shown in Table 3.

Data set [3] has as its system Escherichia coli. The data set can be described thus: outflow of incorporated substrates from Escherichia coli cells (FIG. 3). The settings on record: FIG. 3, in words.
Data set [4] concerns Ehrlich carcinoma. Put plainly: Test 4: survival effect, intraperitoneally implanted Ehrlich carcinoma (FIG. 4). Type of data set: in vivo, mice of RFVL. The note with it: 10 days. How it is done:
Ten mice of RFVL which were 4 to 5 weeks old were used as the test animals and about 10^6 cells/0.2 ml of Ehrlich carcinoma were implanted intraperitoneally.
In FIG. 4, the suspension was administered at doses of 25, 50 and 100 mg/Kg/day to treated groups and the 0.85% biological sodium chloride solution alone was administered to a control group. Parenthesized values shown for each group are average values of the number of living days and the survival ratio.

Data set [5] can be described thus: continuous administration for 10 days, toxicity. Format: in vivo.
Description: as §1

Data set [6] relates to Adeno-carcinoma 755. Put plainly: Test 2: tumor weight, Adeno-carcinoma 755, intraperitoneal benzaldehyde. Format: in vivo, mice (first filial generation of C57BL/6 and DBA/2). The note with it: 11th day. The protocol: as §2
The treatment was continued for 9 days. On the 11th day from the implantation, the tumor weight was measured with respect to each group to obtain results shown in Table 4.

For data set [7], the system named is Ehrlich carcinoma. Put plainly: Test 3: tumor weight, subcutaneously implanted Ehrlich carcinoma (solid tumor). Format: in vivo, mice of RFVL. How it is done: Ten mice of RFVL which were 4 to 5 weeks old were used as the experiemental animals, and about 10^6 cells/0.2 ml of Ehrlich carcinoma were implanted subcutaneously at the right armpit. […] This treatment was continued for 9 days. On the 11th day from the tumor implantation, the tumor weight was measured with respect to each group to obtain results shown in Table 5. In each of control and treated groups, the increase of the body weight in the tested mice during the test was 3.5 g as the average value determined on 10 mice.

A further data set has as its system lymphosarcoma. Put plainly: effect against lymphosarcoma. The settings on record: in words.
The test system of another data set is E. coli W3110. The data set can be described thus: uptake of 14C-substrate (thymine, adenine, glutamic acid, alanine) by E. coli W3110. The note with it: for adenine incorporation / alanine incorporation / glutamic acid incorporation / thymine incorporation: E. coli W3110. How it is done: (§3) In the Table, "glucose" was added as an energy source for cells in which propagation had been terminated and "CM" (Chloramphenicol) was added so as to terminate propagation of cells. […] Separately, instead of this composition of the foregoing additives, a composition comprising glucose, CM, 14C-substrate and colistin was added and cells were similarly obtained. The colistin was added for a comparison system to the Ba-added system because colistin is a permeation inhibitor for cell membranes (antibiotic substance).
(§4) In Table 2, the value of each numerator means a value measured by a scintillation counter and the value of each denominator means a ratio (%) to the value of the control (100%).

Data set [8] in a line: excretion from the living body. Type of data set: in vivo. The settings on record: in words.
Another data set deals with E. coli S. The data set can be described thus: uptake of 14C-substrate (tryptophane) by E. coli S. The settings on record: for tryptophane incorporation: E. coli S. The protocol:
as §3, §4

Data set [9] has as its system Escherichia coli. The data set can be described thus: influence on uptake of amino acids and nucleic acid bases by Escherichia coli (incl. time course, FIGS. 1 and 2). The settings on record: in words. How it is done:
as §3

For a further data set, the system named is tumor cells of mice. Put plainly: control of tumor cells of mice. The note with it: in words.

“And” between values parts separate entries of the source, which are not always exact repeats. Equal values may be shown once. “Also recorded” adds a separate entry of the source.

In the case of `O=Cc1ccccc1` [benzaldehyde], in data set [1], the “sensitivity of malignant cells” value is recorded as “highly sensitive to benzaldehyde”. For the same compound, the “Average Weight (tumor)” value with Adeno-carcinoma 755 [2] (10 ppm suspension s.c. for 9 days, control 5.8 g) came out at 3.8 g; with Adeno-carcinoma 755 [6] (3.5% suspension 0.1 ml i.p. for 9 days, control 5.90 g), 3.55 g; in the data set on Ehrlich carcinoma [7] (10 mg/Kg i.p. for 9 days, 11th day, control 2.79 g) it was 1.24 g. In addition, the “Tumor Weight” value in the data set with Adeno-carcinoma 755 [2] (individual animal, 10 ppm suspension 0.5 to 1.0 ml s.c. once a day for 9 days) was 4.6 g and 2.6 g and 4.1 g; in the data set on Adeno-carcinoma 755 [6] (individual animal, 3.5% suspension 0.1 ml i.p. once a day for 9 days) it was 3.3 g and 3.4 g and 4.0 g and 3.5 g; in the data set on Ehrlich carcinoma [7] (individual animal, 10 mg/Kg i.p. once a day for 9 days, 11th day, 10 mg/kg) it was 3.8 g and 2.4 g and 2.2 g and 0.8 g and 0.6 g and 0.5 g and 0.4 g and 0.3 g. Also, the “damage to cell membranes” value with Escherichia coli [3] is “causes no damage to cell membranes”. Also, the “outflow of incorporated substrate” value in the data set with Escherichia coli [3] was “outflow of the substrate is remarkably reduced and is not changed from outflow of the substrate in the control system”. Also, the survival effect in the data set on Ehrlich carcinoma [4] (50 mg/Kg per day i.p.) came to 15.4%; with Ehrlich carcinoma [4] (100 mg/Kg per day i.p.), 26.9%. Moreover, the “daily dose without bad influences such as toxicity on the host” value in [5] (administered continuously for 10 days) is “up to 200 mg/Kg”. Moreover, in data set [5] (in vivo, ip, continuous intraperitoneal injection for 10 days, read-out: daily dose at which no toxicity is observed), the NOAEL at 240 h was at least 200 mg/kg/day. Besides, the side effects result in [5] (in words) is reported as “causes no side effects”. Further, the “increase of the body weight during the test (average)” value with Ehrlich carcinoma [7] (10 mg/Kg i.p. for 9 days, 10 mice, same in control group) was determined as 3.5 g. Moreover, the “effect on Ehrlich solid tumor” value with Ehrlich carcinoma [7] (solid versus ascites tumor, in words) is “acts strongly on the solid tumor rather than the ascites tumor; also recorded: prominent effect on Erlich solid tumor”. Besides, the effect against lymphosarcoma entry in the data set with lymphosarcoma is recorded as “effective against lymphosarcoma”. In addition, the adenine incorporation with E. coli W3110 (adenine, benzaldehyde 10^-1 PPM) was 3135 CPM; with E. coli W3110 (adenine, benzaldehyde 10^-2 PPM) it was 3684 CPM; in the data set on E. coli W3110 (adenine, benzaldehyde 10^-3 PPM) it was 4246 CPM. The alanine incorporation in the data set with E. coli W3110 (alanine, benzaldehyde 10^-1 PPM) was 5283 CPM; in the data set with E. coli W3110 (alanine, benzaldehyde 10^-2 PPM), 5438 CPM; in the data set with E. coli W3110 (alanine, benzaldehyde 10^-3 PPM), 5838 CPM. Further, the glutamic acid incorporation was 2842 CPM in the data set on E. coli W3110 (glutamic acid, benzaldehyde 10^-1 PPM); 2779 CPM with E. coli W3110 (glutamic acid, benzaldehyde 10^-2 PPM); 3203 CPM in the data set with E. coli W3110 (glutamic acid, benzaldehyde 10^-3 PPM). Also, the thymine incorporation is reported as 1399 CPM in the data set with E. coli W3110 (thymine, benzaldehyde 10^-1 PPM); 1566 CPM with E. coli W3110 (thymine, benzaldehyde 10^-2 PPM); 1891 CPM in the data set on E. coli W3110 (thymine, benzaldehyde 10^-3 PPM). The “excretion from the living body” value in [8] is on record as “promptly excreted from the living body; also recorded: promptly extracted from living bodies”. For the same compound, the tryptophane incorporation is 1076 CPM with E. coli S (benzaldehyde 10^-1 PPM), 915 CPM in the data set with E. coli S (benzaldehyde 10^-2 PPM) and 808 CPM in the data set with E. coli S (benzaldehyde 10^-3 PPM). Further, the “influence on uptake of nucleic acids and other amino acids” value with Escherichia coli [9] (substrates other than tryptophane) is “incorporation of nucleic acids and other amino acids is inhibited; also recorded: exerts an uptake inhibiting action in the case of other substrates”. In the data set with Escherichia coli [9] (tryptophane), the “influence on uptake of tryptophane” value is listed as “the incorporation is promoted; also recorded: the uptake of tryptophane increases with the lapse of time; also recorded: specifically promotes the uptake of tryptophane among substrates”. Further, in the data set with tumor cells of mice, the “control of tumor cells of mice” value is on record as “effective for controlling tumor cells of mice”.

On to colistin [reference compound], for which, in the data set on Escherichia coli [3], the “damage to cell membranes” value is given as “cell membranes are destroyed” and the “outflow of incorporated substrate” value is reported as “outflow of the substrate is extreme”. This compound displayed an adenine incorporation in the data set with E. coli W3110 (adenine, colistin 5 PPM) of 1066 CPM. Moreover, in the data set on E. coli W3110 (adenine, colistin 5 PPM, control 100%), the “adenine incorporation, ratio (%) to the control” value turned out to be 23%. Besides, the alanine incorporation in the data set on E. coli W3110 (alanine, colistin 5 PPM) amounted to 1009 CPM. In addition, the “alanine incorporation, ratio (%) to the control” value in the data set with E. coli W3110 (alanine, colistin 5 PPM, control 100%) was determined as 17%. This compound also registered a glutamic acid incorporation in the data set on E. coli W3110 (glutamic acid, colistin 5 PPM) of 670 CPM. Besides, in the data set on E. coli W3110 (glutamic acid, colistin 5 PPM, control 100%), the “glutamic acid incorporation, ratio (%) to the control” value came to 16%. The compound also showed a thymine incorporation with E. coli W3110 (thymine, colistin 5 PPM) of 333 CPM. Further, the “thymine incorporation, ratio (%) to the control” value in the data set with E. coli W3110 (thymine, colistin 5 PPM, control 100%) is listed as 16%. The compound also had a tryptophane incorporation with E. coli S (colistin 5 PPM) of 439 CPM. Also, in the data set on E. coli S (colistin 5 PPM, control 100%), the “tryptophane incorporation, ratio (%) to the control” value worked out at 65%.

These data come from patent publication US4983636A, “Composition and method of treating selected malignant conditions” (Rikagaku Kenkyusho Wako, priority 1976, dated 1991).
